Data reported in patent US20070269529A1, “Method For Treating Plants And Plant Parts” (priority 2003, published 2007).

Experiments:
Format in all cases: cell-based, Raphanus sativus L. cv. Cherry-Belle
PAL (EC 4.3.1.5) = assay: PAL activity in radish cotyledons; conditions: 20 mg/L, FIG. 1
Method: (§1) Seeds of Raphanus sativus L. cv. Cherry-Belle were germinated in darkness at 24° C. for 40 h in Petri dishes containing filter paper wetted with distilled water. The smaller of the two cotyledons was excised, the fresh weight determined, and 10 cotyledons placed adaxial side down on filter paper in Petri dishes containing 7.5 mL of phosphate buffered saline (PBS, 2 mM, pH 6.0) and the compounds to be tested at 20 mg/L. Cotyledons were then incubated under continuous illumination up to 72 h at 24° C. or 25° C. and the increase in fresh weight determined. Chlorophyll content was determined after extraction of tissue into 80% EtOH (containing butylated hydroxytoluene 10 mg/L) and quantified using the equations Chl a=(13.95A663)-(6.88A647) and Chl b=(24.96A652)-(7.32A663) as described by Lichtenthaler, H K (Methods in Enzymology 148:350-382, 1987). IAA oxidase, PAL, PPO and POD activity were determined as described by Kato, M et al. (Plant and Cell Physiology 41:440-447, 2000) and Li, X et al. (Plant Science 164:549-556, 2003).
(§2) PAL (EC 4.3.1.5) activity: Ethylene is produced by plants in response to a variety of stresses, including wounding (Kato, M et al. Plant and Cell Physiology 41:440-447, 2000). Assuming the stress is of sufficient intensity and duration plants will also begin to show signs of senescence. […]

POD (EC 1.11.1.7) = assay: POD activity in radish cotyledons; conditions: onset of organ maturity, FIG. 4
Method: as §1
To determine the effect of EML on induction of POD, activity of this enzyme was monitored during the 72 h incubation period after exposure to soy EML (20 mg/l) and the results are shown in FIG. 4. […] Highest POD activity was measured in control and ACC-treated cotyledons.

PPO (EC 1.14.18.1) = assay: PPO activity in radish cotyledons; conditions: 20 mg/L, FIG. 6
Method: as §1
PPO (EC 1.14.18.1): Like PAL and POD, PPO is an important enzyme catalyzing lignin biosynthesis in plants.

radish cotyledons [1] = assay: Protein content of radish cotyledons; conditions: 20 mg/L, FIG. 1
Method: as §1, §2

radish cotyledons [2] = assay: Radish cotyledon expansion bioassay (fresh weight, chlorophyll); conditions: compounds 20 mg/L, 72 h, 25° C.; for Change in fresh weight: continuous illumination
Method: as §1
In order to remove variability from the bioassay—due presumably to temporal changes in the concentration of root-derived cytokinins in cotyledons—the bioassay procedure was modified to routinely include 0.2 mg/L (approximately 1 μM) kinetin in the background.
Cotyledon expansion growth: The effect of soy EML in the presence of kinetin on expansion growth was investigated and the results are shown in Table 1.

IAA oxidase = IAA oxidase activity in radish cotyledons; conditions: 20 mg/L, FIG. 7
Method: as §1
IAA Oxidase activity: IAA homeostasis is an important process contributing to correlative control of plant growth and development. Generally, IAA is synthesized in the apices and in shoots; apically derived IAA is basipetally transported. […]

| Molecule | PAL activity (PAL (EC 4.3.1.5)) | POD activity at 48 and 72 h (POD (EC 1.11.1.7)) | PPO activity (PPO (EC 1.14.18.1)) | protein content (radish cotyledons [1]) | % of control (change in fresh weight) (radish cotyledons [2]) | Chlorophyll a + b (mg/g FW) (radish cotyledons [2]) | Chlorophyll a + b (μg/cotyledon) (radish cotyledons [2]) | Chlorophyll a/b (radish cotyledons [2]) | Change in fresh weight (radish cotyledons [2]) | activity at 20 µg/mL (radish cotyledons [2]; Raphanus sativus, read-out: % of control (change in fresh weight)) | IAA oxidase activity (IAA oxidase) |
| --- | --- | --- | --- | --- | --- | --- | --- | --- | --- | --- | --- |
| NC1(C(=O)O)CC1 [ACC, 1-amminocyclopropane-1-carboxylic acid] | progressively delayed | Highest | appeared to suppress PPO activity | delayed and reached a maximum only 24 h after exposure to light | 25% | 5.40 mg/g FW | 35.90 ± 6.13 μg/cotyledon | 0.83 | 2.56 ± 0.39 mg | – | – |
| c1coc(CNc2ncnc3[nH]cnc23)c1 [Kinetin, kinetin] | progressively delayed | lowest | appeared to increase gradually over time | rapid but transient increase | – | 2.17 mg/g FW | 54.10 ± 7.03 μg/cotyledon | 0.87 | 15.49 ± 1.81 mg | 153% | – |
| lysophosphatidylethanolamine [LPE] | – | – | did not induce PPO activity | – | – | – | – | – | – | – | no apparent effect |
